Here are results for 58 compounds from US8841312B2, “Fused pyridine, pyrimidine and triazine compounds as cell cycle inhibitors” (Amgen Inc., priority 2007, dated 2014).

Chain of Cdk4/CyclinD1 (P11802 whole entry): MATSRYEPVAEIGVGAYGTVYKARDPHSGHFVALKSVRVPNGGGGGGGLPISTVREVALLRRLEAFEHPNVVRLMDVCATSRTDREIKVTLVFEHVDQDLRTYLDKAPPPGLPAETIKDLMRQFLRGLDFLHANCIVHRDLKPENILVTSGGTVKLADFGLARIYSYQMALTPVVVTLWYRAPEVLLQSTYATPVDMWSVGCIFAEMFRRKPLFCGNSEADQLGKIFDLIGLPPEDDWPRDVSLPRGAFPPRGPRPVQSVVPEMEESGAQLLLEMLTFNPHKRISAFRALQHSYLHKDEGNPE
Chain of Cdk4/CyclinD1 (P24385 whole entry partner): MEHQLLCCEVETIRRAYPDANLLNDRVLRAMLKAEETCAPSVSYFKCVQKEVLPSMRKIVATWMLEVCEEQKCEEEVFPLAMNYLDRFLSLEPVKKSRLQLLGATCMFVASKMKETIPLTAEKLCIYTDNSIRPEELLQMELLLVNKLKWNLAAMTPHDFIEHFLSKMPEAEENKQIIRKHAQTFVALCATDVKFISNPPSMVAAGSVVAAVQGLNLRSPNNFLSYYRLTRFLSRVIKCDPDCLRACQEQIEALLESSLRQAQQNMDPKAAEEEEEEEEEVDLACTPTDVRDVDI

For the experiment, the target named is Cdk4/CyclinD1 (Homo sapiens (Human), UniProt P11802). Nature of the experiment: Cdk4 kinase inhibition assay with recombinant Cdk4/CyclinD1, Rb substrate, [33P]-ATP filter plate. The class given is biochemical. As to conditions: 25 μM ATP, read-out: Cdk 4 IC50. The method, then:
The Cdk4 and Cdk6 inhibitory activity of the compounds is measured with a kinase inhibition assay using recombinant Cdk4/CyclinD1 or Cdk6/CyclinD3 protein complexes. The protein substrate used in the assay is the retinoblastoma protein (Rb). The kinase reactions are carried out in a 96-well filter plate (MSDV N6B50, Millipore). […] The mixture is incubated at room temperature for 1 hour and the proteins precipitated with an equal volume of 20% TCA. The plates are washed with 10% TCA according to the manufacturer's instruction and dried at room temperature. The amount of the phosphorylated Rb is determined with a TopCount (PerkinElmer). The IC50 of a compound is determined by nonlinear regression curve fitting using software program Prism 5 (GraphPad Software).
As a reminder, the IC50 is the midpoint of a concentration-inhibition curve. On to `CC1(C)CN(c2ccc(Nc3ncc4c5ccncc5n(C5CCCC5)c4n3)nn2)CCN1` [Example 10], for which the IC50 is 2.2 nM. With `CN(C)C1CCN(c2ccc(Nc3ncc4c5ccncc5n(C5CCCC5)c4n3)nc2)CC1` [Example 12], the IC50 is 9.6 nM.

For the compound `c1ccc(-n2c3cnccc3c3cnc(Nc4ccc(N5CCNCC5)cc4)nc32)cc1` [Example 17, (9-Phenyl-9H-pyrido[4′,3′:4,5]pyrrolo[2,3-d]pyrimidin-2-yl)-(4-piperazin-1-yl-phenyl)amine], the IC50 came to 0.32 nM. For `c1cc2c3cnc(Nc4ccc(N5CCNCC5)cn4)nc3n(C3CCCCC3)c2cn1` [Example 23, (9-Cyclohexyl-9H-pyrido[4′,3′,4,5]pyrrolo[2,3-d]pyrimidin-2-yl)-(5-piperazin-1-yl-pyridin-2-yl)-amine] the value was 11 nM. For `Fc1cncc2c1c1cnc(Nc3ccc(N4CCNCC4)cn3)nc1n2C1CCCC1` [Example 58, 9-Cyclopentyl-5-fluoro-N-(5-(1-piperazinyl)-2-pyridinyl)-9H-pyrido[4′,3′:4,5]pyrrolo[2,3-d]pyrimidin-2-amine] the value was 5.2 nM. In the case of `c1ncc2c(n1)c1cnc(Nc3ccc(N4CCNCC4)cn3)nc1n2C1CCCC1` [Example 59, 5-Cyclopentyl-N-(5-(1-piperazinyl)-2-pyridinyl)-5H-pyrimido[4′,5′:4,5]pyrrolo[2,3-d]pyrimidin-7-amine] it was 15 nM. For the compound `NCC1CCN(c2ccc(Nc3ncc4c5ccncc5n(C5CCCC5)c4n3)nc2)CC1` [Example 60, 4-Aminomethyl-1-(6-((9-cyclopentyl-9H-pyrido[4′,3′:4,5]pyrrolo[2,3-d]pyrimidin-2-yl)amino)-3-pyridinyl)-piperidine], the IC50 came to 4 nM.

Regarding `C[C@@H]1CN(c2ccc(Nc3ncc4c5ccncc5n(C5CCCC5)c4n3)nc2)CCN1` [Example 61], the half-maximal inhibitory concentration (IC50) amounted to 1.7 nM.

Take `C[C@H]1CN(c2ccc(Nc3ncc4c5ccncc5n(C5CCCC5)c4n3)nc2)CCN1` [Example 62]: the IC50 amounted to 2 nM.

As to `NCC1CCCN(c2ccc(Nc3ncc4c5ccncc5n(C5CCCC5)c4n3)nc2)C1` (stereo not shown) [Example 67], the IC50 amounted to 1.3 nM. With `c1cc2c3cnc(Nc4ccc(NCC5CCNC5)cn4)nc3n(C3CCCC3)c2cn1` (stereo not shown) [Example 70], the IC50 is 3.6 nM. For the compound `CC1CN(c2ccc(Nc3ncc4c5ccncc5n(C5CCCC5)c4n3)nc2)CC(C)N1` (stereo not shown) [Example 72], the IC50 turned out to be 2.3 nM.

As to `COC1CCN(c2ccc(Nc3ncc4c5ccncc5n(C5CCCC5)c4n3)nc2)C1` (stereo not shown) [Example 73], the IC50 turned out to be 17 nM. For the compound `CC1CCN(c2ccc(Nc3ncc4c5ccncc5n(C5CCCC5)c4n3)nc2)C1` (stereo not shown) [Example 74], the IC50 was determined as 56 nM. As for `CNC1CCN(c2ccc(Nc3ncc4c5ccncc5n(C5CCCC5)c4n3)nc2)CC1` [Example 75], the IC50 amounted to 1.4 nM.

Regarding `c1cc2c3cnc(Nc4ccc(N5CCC(N6CCCC6)CC5)cn4)nc3n(C3CCCC3)c2cn1` [Example 76], the IC50 is 5.9 nM. For `CN1CCN(c2cnc(Nc3ncc4c5ccncc5n(C5CCCC5)c4n3)cn2)CC1` [Example 78] the value was 15 nM. For `CC1CN(c2cnc(Nc3ncc4c5ccncc5n(C5CCCC5)c4n3)cn2)CC(C)N1` (stereo not shown) [Example 79] the value was 12 nM. For `C[C@@H]1CN(c2cnc(Nc3ncc4c5ccncc5n(C5CCCC5)c4n3)cn2)CCN1` [Example 80] the value was 3.5 nM; for `C[C@H]1CN(c2cnc(Nc3ncc4c5ccncc5n(C5CCCC5)c4n3)cn2)CCN1` [Example 81], 9.2 nM; for `NC1CCN(c2cnc(Nc3ncc4c5ccncc5n(C5CCCC5)c4n3)cn2)CC1` [Example 82], 2.6 nM.

As for `c1cc2c3cnc(Nc4cnc(NC5CCNCC5)cn4)nc3n(C3CCCC3)c2cn1` [Example 83], the IC50 was determined as 12 nM. Turning to `c1cc2c3cnc(Nc4cnc(N5CCOCC5)cn4)nc3n(C3CCCC3)c2cn1` [Example 84], the IC50 is 22 nM. In the case of `CN(C)C1CCN(c2cnc(Nc3ncc4c5ccncc5n(C5CCCC5)c4n3)cn2)CC1` [Example 85] it was 20 nM. As for `c1cc2c3cnc(Nc4cnc(N5CCCNCC5)cn4)nc3n(C3CCCC3)c2cn1` [Example 86], the IC50 worked out at 6.4 nM. Take `COC1CCN(c2cnc(Nc3ncc4c5ccncc5n(C5CCCC5)c4n3)cn2)C1` (stereo not shown) [Example 87]: the IC50 stood at 43 nM. For `CC1CCN(c2cnc(Nc3ncc4c5ccncc5n(C5CCCC5)c4n3)cn2)C1` (stereo not shown) [Example 88] the value was 477 nM; for `N[C@H]1CCN(c2cnc(Nc3ncc4c5ccncc5n(C5CCCC5)c4n3)cn2)C1` [Example 89], 7.6 nM.

As for `N[C@@H]1CCN(c2cnc(Nc3ncc4c5ccncc5n(C5CCCC5)c4n3)cn2)C1` [Example 90], the half-inhibitory concentration (IC50) came out at 5.6 nM.

In the case of `c1cc2c3cnc(Nc4ccc(N[C@@H]5CCNC5)nn4)nc3n(C3CCCC3)c2cn1` [Example 91], the IC50 came to 6.1 nM. For `c1cc2c3cnc(Nc4ccc(N[C@H]5CCNC5)nn4)nc3n(C3CCCC3)c2cn1` [Example 92], the IC50 is 8.8 nM. For `NCC1CCCN(c2ccc(Nc3ncc4c5ccncc5n(C5CCCC5)c4n3)nn2)C1` (stereo not shown) [Example 95] the value was 4.4 nM. As for `c1cc2c3cnc(Nc4ccc(NCC5CCCCN5)nn4)nc3n(C3CCCC3)c2cn1` (stereo not shown) [Example 99], the IC50 was determined as 4.9 nM. For `c1cc2c3cnc(Nc4ccc(NCC5COCCN5)nn4)nc3n(C3CCCC3)c2cn1` (stereo not shown) [Example 100] the value was 6.2 nM; for `COC1CCN(c2ccc(Nc3ncc4c5ccncc5n(C5CCCC5)c4n3)nn2)C1` (stereo not shown) [Example 110], 3.4 nM; for `CN1CCN(c2ccc(Nc3ncc4c5ccncc5n(C5CCCC5)c4n3)nn2)CC1` [Example 112], 5.9 nM. In the case of `CC1CN(c2ccc(Nc3ncc4c5ccncc5n(C5CCCC5)c4n3)nn2)CC(C)N1` (stereo not shown) [Example 113] it was 4.2 nM; in that of `O=C1CN(c2ccc(Nc3ncc4c5ccncc5n(C5CCCC5)c4n3)nn2)CCN1` [Example 115], 2.3 nM; in that of `NC1CCCN(c2ccc(Nc3ncc4c5ccncc5n(C5CCCC5)c4n3)nn2)C1` (stereo not shown) [Example 116], 2 nM. Turning to `N#CC1CCN(c2ccc(Nc3ncc4c5ccncc5n(C5CCCC5)c4n3)nn2)C1` (stereo not shown) [Example 118], the IC50 was determined as 4.2 nM. Take `CC1CCN(c2ccc(Nc3ncc4c5ccncc5n(C5CCCC5)c4n3)nn2)C1` (stereo not shown) [Example 120]: the IC50 is 19 nM. Turning to `CCC1CN(c2ccc(Nc3ncc4c5ccncc5n(C5CCCC5)c4n3)nn2)CCN1` (stereo not shown) [Example 121], the IC50 worked out at 4.3 nM.

Consider `O=c1[nH]ccc2c3cnc(Nc4ccc(N5CCNCC5)nn4)nc3n(C3CCCC3)c12` [Example 122, 9-Cyclopentyl-2-((6-(1-piperazinyl)-3-pyridazinyl)amino)-7,9-dihydro-8H-pyrido[4′,3′:4,5]pyrrolo[2,3-d]pyrimidin-8-one], for which the IC50 was found to be 8.7 nM. On to `CN(C)C1CCN(c2ccc(Nc3ncc4c5cc[nH]c(=O)c5n(C5CCCC5)c4n3)nc2)CC1` [Example 123], for which the IC50 turned out to be 48.1 nM. `CC1CN(c2ccc(Nc3ncc4c5cc[nH]c(=O)c5n(C5CCCC5)c4n3)nc2)CC(C)N1` (stereo not shown) [Example 124]: the IC50 was found to be 17 nM.

Take `CC1CN(c2ccc(Nc3ncc4c5cc[nH]c(=O)c5n(C5CCCC5)c4n3)nn2)CC(C)N1` (stereo not shown) [Example 125]: the IC50 came to 12 nM. As to `NC1CCN(c2ccc(Nc3ncc4c5cc[nH]c(=O)c5n(C5CCCC5)c4n3)nn2)CC1` [Example 126], the IC50 came to 2 nM. In the case of `CN(C)C1CCN(c2ccc(Nc3ncc4c5cc[nH]c(=O)c5n(C5CCCC5)c4n3)nn2)CC1` [Example 127] it was 5.3 nM. For `CN1CCN(c2ccc(Nc3ncc4c5cc[nH]c(=O)c5n(C5CCCC5)c4n3)nn2)CC1` [Example 128] the value was 29 nM; for `C[C@H]1CN(c2ccc(Nc3ncc4c5cc[nH]c(=O)c5n(C5CCCC5)c4n3)nn2)CCN1` [Example 129], 16 nM; for `CC1(C)CN(c2ccc(Nc3ncc4c5cc[nH]c(=O)c5n(C5CCCC5)c4n3)nn2)CCN1` [Example 130], 20 nM. In the case of `NC1CCN(c2nc(Nc3ncc4c5ccncc5n(C5CCCC5)c4n3)ns2)CC1` [Example 131, 4-Amino-1-(3-((9-cyclopentyl-9H-pyrido[4′,3′:4,5]pyrrolo[2,3-d]pyrimidin-2-yl)amino)-5-1,2,4-thiadiazolyl)-piperidine] it was 174 nM; in that of `c1cc2c3cnc(Nc4nsc(N5CCNCC5)n4)nc3n(C3CCCC3)c2cn1` [Example 132], 302 nM.

As for `CN1CCN(c2nc(Nc3ncc4c5ccncc5n(C5CCCC5)c4n3)ns2)CC1` [Example 133], the IC50 is 100 nM.

Turning to `CN(C)C1CCN(c2nc(Nc3ncc4c5ccncc5n(C5CCCC5)c4n3)ns2)CC1` [Example 134], the half-maximal inhibitory concentration (IC50) turned out to be 190 nM. For `c1cc2c3cnc(Nc4nsc(NC5CCNC5)n4)nc3n(C3CCCC3)c2cn1` (stereo not shown) [Example 135] the value was 10000 nM. Turning to `O=C(CO)N1CCN(c2ccc(Nc3ncc4c5ccncc5n(C5CCCC5)c4n3)nc2)CC1` [Example 151, 2-(4-(6-((9-Cyclopentyl-9H-pyrido[4′,3′:4,5]pyrrolo[2,3-d]pyrimidin-2-yl)amino)-3-pyridinyl)-1-piperazinyl)-2-oxoethanol], the IC50 was 3 nM. With `CN(C)C1CCN(c2ccc(Nc3ncc4c5ccnc(Cl)c5n(C5CCCC5)c4n3)nn2)CC1` [Example 154, 8-Chloro-9-cyclopentyl-N-(6-(4-(dimethylamino)-1-piperidinyl)-3-pyridazinyl)-9H-pyrido[4′,3′:4,5]pyrrolo[2,3-d]pyrimidin-2-amine], the IC50 is 20 nM.
